Laboratory results: patent US20120165319A1, “INHIBITORS OF INTERLEUKIN-1 BETA CONVERTING ENZYME” (VERTEX PHARMACEUTICALS INCORPORATED, priority 1995, published 2012)
Entries after “also recorded” stand apart in the source; their conditions may differ.

Tests used:
[1] = biological target: T1, ICE (Homo sapiens, UniProt P29466); assay: Enzyme assay with UV-visible substrate (visible ICE assay, Succinyl-Tyr-Val-Ala-Asp-pNitroanilide); format: biochemical; conditions: Table 5
T1 sequence (P29466 120-297 limits assumed): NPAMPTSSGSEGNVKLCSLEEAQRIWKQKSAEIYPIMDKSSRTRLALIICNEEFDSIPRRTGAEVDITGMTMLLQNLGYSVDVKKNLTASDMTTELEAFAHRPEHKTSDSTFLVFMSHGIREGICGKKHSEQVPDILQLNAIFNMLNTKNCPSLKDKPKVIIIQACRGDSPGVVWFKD
T1 sequence (P29466 317-404 limits assumed): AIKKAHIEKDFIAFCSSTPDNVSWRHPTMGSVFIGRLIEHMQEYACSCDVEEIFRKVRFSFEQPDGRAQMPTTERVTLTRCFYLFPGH
Summary of the method: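 Buffer, ICE and inhibitor in DMSO are combined and held 15 min at room temperature. Succinyl-Tyr-Val-Ala-Asp-pNA is then added and absorbance at 405-603 nm tracked for 20 min at 37° C.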

[2] = test system: IL-1β, human peripheral blood mononuclear cells (PBMC); assay: PBMC cell assay: IL-1β assay with human PBMC or enriched adherent mononuclear cells, LPS-stimulated; format: cell-based; conditions: Homo sapiens, PBMC, * = values obtained upon reassay
Summary of the method: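 Mature IL-1β is measured by ELISA in supernatants after 16–18 hr at 37 °C, 5% CO2, with LPS (5 ng/ml final) and test compound (0.1% DMSO final). Cells are human PBMC (6×10^6 cells/ml) or plate-adherent mononuclear cells (2.5−3.0×10^5 per well), and the 5–6 compound concentrations span the ICE Ki.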

[3] = test system: IL-1β production, LPS-challenged mice; assay: In vivo acute assay for efficacy as anti-inflammatory agent: LPS-induced IL-1β production in mice; set-up: species or system mouse; conditions: for inhibition of IL-1β production after oral administration, dosed at time of LPS challenge: LPS-challenged mice, vehicles ethanol/PEG/water, β-cyclodextrin, labrosol/water or cremophor/water, result in words; for Inhibition (%) of IL-1β production in LPS-challenged mice: oral, dosed at time of LPS challenge
Summary of the method: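 Serum IL-1β was measured by ELISA 7 h after an IP dose of 20 mg/kg LPS in CD1 mice, n=6 per group. Compounds in olive oil/DMSO/ethanol 90:5:5 were injected IP 1 h post-LPS (some analogs were dosed at challenge), and separate groups received 50 mg/kg by oral gavage.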

[4] = Measurement of blood levels of prodrugs of 214e after p.o. dosing in mice; format: in vivo, mouse; conditions: p.o. 50 mg/kg in 0.5% carboxymethylcellulose, blood at 1 and 7 hours
Description: Measurement of Blood Levels of Prodrugs of 214e
Mice were administered a p.o. dose of compounds 302 and 304a (50 mg/kg) prepared in 0.5% carboxymethylcellulose. Blood samples were collected at 1 and 7 hours after dosing. Serum was extracted by precipitation with an equal volume of acetonitrile containing 2% formic acid followed by centrifugation. The supernatant was analyzed by liquid chromatography-mass spectrometry (ESI-MS) with a detection level of 0.03 to 3 μg/ml.

[5] = test system: IL-1β levels in the peritoneal fluid, carrageenan-challenged mice; assay: Mouse carrageenan peritoneal inflammation; format: in vivo; conditions: for Inhibition (%) of IL-1β production in carrageenan-challenged mice: oral
Description: Mouse Carrageenan Peritoneal Inflammation
Inflammation was induced in mice with an intraperitoneal (IP) injection of 10 mg carrageenan in 0.5 ml of saline (Griswold et al., Inflammation, 13, pp. 727-739 (1989)). Drugs are administered by oral gavage in ethanol/PEG/water, β-cyclodextrin, labrosol/water or cremophor/water vehicle. The mice are sacrificed at 4 hours post carrageenan administration, then injected IP with 2 ml of saline containing 5 U/ml heparin. After gentle massage of the peritoneum, a small incision is made, the contents collected and volume recorded. Samples are kept on ice until centrifuged (130×g, 8 mins at 4° C.) to remove cellular material, and the resultant supernatant stored at −20° C. IL-1β levels in the peritoneal fluid are determined by ELISA.

[6] = test system: male DBA/1J mice, type II collagen-induced arthritis; assay: Type II collagen-induced arthritis; format: in vivo, mouse; conditions: oral gavage twice a day 10, 25 and 50 mg/kg (214e: 50 mg/kg once a day), Arthritis Severity Score, result in words
Description: Type II Collagen-Induced Arthritis
Type II collagen-induced arthritis was established in male DBA/1J mice at described Wooley and Geiger (Wooley, P. H., Methods in Enzymology, 162, pp. 361-373 (1988) and Geiger, T., Clinical and Experimental Rheumatology, 11, pp. 515-522 (1993)). Chick sternum Type II collagen ([…] in 10 mM acetic acid) was emulsified with an equal volume of Freund's complete adjuvant (FCA) by repeated passages (400) between two 10 ml glass syringes with a gauge 16 double-hub needle. Mice were immunized by intradermal injection (50 μl; […], CII per mouse) of collagen emulsion 21 days later at the contra-lateral side of the tail base. Drugs were administered twice a day (10, 25 and 50 mg/kg) by oral gavage approximately 7 h apart. Vehicles used included ethanol/PEG/water, β-cyclodextrin, labrosol/water or cremophor/water. Drug treatments were initiated within 2 h of the CII booster immunization. Inflammation was scored on a 1 to 4 scale of increasing severity on the two front paws and the scores are added to give the final score.

[7] = In vivo bioavailability determination (oral, rat); conditions: for blood levels of drug when dosed orally: oral 10-100 mg/kg; for blood levels of drug when dosed orally / drug availability when dosed orally: result in words; for Drug Availability / Cmax / drug availability when dosed orally: oral; for Cmax: aldehyde (drug) concentration
Description: In Vivo Bioavailability Determination
The drugs (10-100 mg/kg) were dosed orally to rats (10 mL/kg) in ethanol/PEG/water, β-cyclodextrin, labrosol/water or cremophor/water. Blood samples were drawn from the carotid artery at 0.25, 0.50, 1, 1.5, 2, 3, 4, 6, and 8 hours after dosing, centrifuged to plasma and stored at −70° C. until analysis. Aldehyde concentrations were determined using an enzymatic assay. Pharmacokinetic analysis of data was performed by non-linear regression using RStrip (MicroMath Software, UT).

[8] = test system: IFN-γ, human PBMC; assay: Human PBMC assay (Example 27): IFN-γ production; format: cell-based; conditions: LPS-stimulated human PBMCs (FIG. 5); read-out: IC50, decrease of IFN-γ production
Description: (§1) Since the processing and secretion of biologically active IGIF is mediated by ICE, we compared the activity of a reversible ICE inhibitor (Ac-YVAD-CHO) on IL-1β and IFN-γ production in a peripheral blood mononuclear cell (PBMC) assay (Examples 27).
(§2) Human buffy coat cells were obtained from blood donors and peripheral blood mononuclear cells (PBMC) were isolated by centrifugation in LeukoPrep tubes (Becton-Dickinson, Lincoln Park, N.J.). PBMC were added (3×10^6/well) to 24 well Corning tissue culture plates and after 1 hr incubation at 37° C., non-adherent cells were removed by gently washing. Adherent mononuclear cells were stimulated with LPS (1 μg/ml) with or without ICE inhibitor in 2 ml RPMI-1640-10% FBS. After 16-18 hr incubation at 37° C., IGIF and IFN-γ were quantitated in culture supernatants by ELISA.

[9] = test system: IL-1β, human PBMC; assay: Human PBMC assay (Example 27): IL-1β production; format: cell-based; conditions: LPS-stimulated human PBMCs (FIG. 5); read-out: IC50, decrease of IL-1β production
Description: as §1, §2

[10] = LPS challenged mice, PO, 50 mg/kg, * = values obtained in subsequent assays (Table 4)

Molecule | inhibition of IL-1β production after oral administration, dosed at time of LPS challenge [3] | Inhibition (%) of IL-1β production in LPS-challenged mice ([3]; 10 mg/kg dose) [%] | Inhibition (%) of IL-1β production in LPS-challenged mice ([3]; 25 mg/kg dose) [%] | Inhibition (%) of IL-1β production in LPS-challenged mice ([3]; 50 mg/kg dose) [%] | Inhibition (%) of IL-1β production in carrageenan-challenged mice ([5]; dose 1 mg/kg) [%] | Inhibition (%) of IL-1β production in carrageenan-challenged mice ([5]; dose 10 mg/kg) [%] | Inhibition (%) of IL-1β production in carrageenan-challenged mice ([5]; dose 25 mg/kg) [%] | Inhibition (%) of IL-1β production in carrageenan-challenged mice ([5]; dose 50 mg/kg) [%] | Inhibition (%) of IL-1β production in carrageenan-challenged mice ([5]; dose 100 mg/kg) [%] | inhibition of inflammation / progression of type II collagen-induced arthritis [6] | blood levels of drug when dosed orally [7] | Drug Availability ([7]; dose 25 mg/kg) [%] | Cmax ([7]; dose 25 mg/kg) [ng/mL] | drug availability when dosed orally [7] | also measured
COC1OC(=O)C[C@@H]1NC(=O)[C@@H]1CCCN2C(=O)CC[C@H](NC(=O)c3ccccc3)C(=O)N12 (stereo partly drawn) [Compound 304a, [1S,9S (2RS,3S)]9-Benzoylamino-6,10-dioxo-1,2,3,4,7,8,9,10-octahydro-N-(2-methoxy-5-oxo-tetrahydro-furan-3-yl)-6H-pyridazino[1,2-a][1,2]diazapine-1-carboxamide] | – | – | – | – | – | – | – | – | – | – | – | – | – | – | Ki [1]: 200 nM; IC50 [2]: 1400 nM; Inhibition of IL-1β Production, compound administered 0 hr relative to LPS challenge [3, 10]: 68%; Inhibition of IL-1β Production, compound administered +1 hr relative to LPS challenge [3, 10]: 37%; Inhibition of IL-1β Production, compound administered −1 hr relative to LPS challenge [3, 10]: 33%; Inhibition of IL-1β Production, compound administered −2 hr relative to LPS challenge [3, 10]: 30%; blood levels when administered orally (in words) [4]: detectable blood levels
CCO[C@@H]1OC(=O)C[C@@H]1NC(=O)[C@@H]1CCCN2C(=O)CC[C@H](NC(=O)c3nccc4ccccc34)C(=O)N12 [Compound 412f, [1S,9S(2R,3S)]N-(2-Ethoxy-5-oxotetrahydrofuran-3-yl)-6,10-dioxo-9-(isoquinolin-1-oylamino)-1,2,3,4,7,8,9,10-octahydro-6-H-pyridazino[1,2-a][1,2]diazepine-1-carboxamide] | inhibit IL-1β production | 17 | 25 | 32 | 30 | 54 | 49 | 73 | 75 | inhibit inflammation; also recorded: blocks the progression | significant blood levels of drug | 32 | 2400 | good drug availability | inhibition of IL-1β production in carrageenan-challenged mice ([5]; oral administration, 214e at 50 mg/kg, result in words): inhibits IL-1β production
O=C(CN1C(=O)[C@@H](NC(=O)c2nccc3ccccc23)CN(C(=O)CO)c2ccccc21)N[C@H]1CC(=O)OC1OCc1ccccc1 (mixture of isomers) [Compound 696a, (3S)-2-Oxo-3-(isoquinolin-1-oyl)amino-5-hydroxyacetyl-N-[(2RS,3S)-benzyloxy-5-oxo-tetrahydrofuran-3-yl]-2,3,4,5-tetrahydro-1H-1,5-benzodiazepine-1-acetamide] | inhibit IL-1β production | 0 | 45 | 52 | – | – | – | – | – | inhibit inflammation; also recorded: blocks the progression | significant blood levels of drug | – | – | good drug availability | Drug Availability ([7]; dose 50 mg/kg): 10%; Cmax ([7]; dose 50 mg/kg): 1200 ng/mL
O=C1C[C@H](NC(=O)[C@@H]2CCCN3C(=O)CC[C@H](NC(=O)c4nccc5ccccc45)C(=O)N23)[C@H](OC2CCCC2)O1 [Compound 412d, [1S,9S(2R,3S)]N-(2-Cyclopentoxy-5-oxotetrahydrofuran-3-yl)-6,10-dioxo-9-(isoquinolin-1-oylamino)-1,2,3,4,7,8,9,10-octahydro-6-H-pyridazino[1,2-a][1,2]diazepine-1-carboxamide] | inhibit IL-1β production | – | – | – | 0 | 32 | 31 | 36 | 53 | inhibit inflammation; also recorded: blocks the progression | significant blood levels of drug | 35 | 2600 | good drug availability | –
AcYVAD-CHO [Ac-YVAD-CHO, reference compound] | – | – | – | – | – | – | – | – | – | – | – | – | – | – | IC50 [8]: 2500 nM; IC50 [9]: 2500 nM
